Data from US20260315499A1, “2'- {HETEROCYCLYL (ARYL/ALKYL) METHYL} - CANNABIDIOL COMPOUNDS AND PROCESS FOR PREPARATION THEREOF” (COUNCIL OF SCIENTIFIC & INDUSTRIAL RESEARCH, priority 2023, published 2026).
Where two headings read alike, the source gives them in different places.

Columns and labels:
[1] = Cell viability assay in macrophage RAW264.7 cells (MTT); assay type: cell-based; conditions: mouse, read-out: % cell viability ± SD
Protocol: RAW264.7 cells were seeded in 96-well cell culture plates at a density of 1×10^4 cells per well and incubated overnight at 37° C. with 5% CO2. Next day, the cells were treated with CBD or its derivatives at 5 μM and/or 10 μM concentration for 24 hrs. The MTT dye (2.5 mg/ml, 20 μL) was added to each well 4 hrs before termination (Molecules. 2022, 27, 8068). After 4 hrs of incubation with MTT, the supernatant was discarded, and the formazan crystals were dissolved by adding 100 μL DMSO. The absorbance was recorded at 540 nm on microplate reader (Tecan Infinite Pro).

[2] = Cell viability assay in differentiated neuronal cells (MTT), N2A; assay type: cell-based; conditions: mouse, read-out: % Cell viability ± SD, N2A
Text: (§1) In the present disclosure outlined herein, a focused library of cannabidiol analogues were studied for possible neuro-protective potential employing cell line-based stress model systems which mimic the biological stress conditions in vitro (J Cell Biochem., 2018, 119(8), 6482-6491).
(§2) Human neuroblastoma cells (SHSY5Y) and mouse neuroblastoma cells (N2A) were procured from American Type Culture Collection (ATCC). SHSY5Y cell cultures were maintained in DMEM F12 (Invitrogen) whereas N2A were cultured in DMEM (Invitrogen) with 10% Fetal Bovine Serum (Gibco) medium, subjected to differentiation to acquire neuronal morphology (employing differentiation media DMEM-F12, 3-5% FBS, (For differentiation, low concentration of FBS was used) and 50 μM retinoic acid). Differentiated cells were later seeded into 96 well plates, at a density of 1×10^4 before being incubated for 48 hrs with the synthesized library. The exhausted culture media was substituted with new culture media containing 0.5 mg/ml MTT dye. Eventually, the OD at 490 nm excitation was measured using a 96-well plate reader. The proportion of viable cells was determined as percentage of absorbance of untreated cultures relative to control.

[3] = Cell viability assay in differentiated neuronal cells (MTT), SHSY5Y; assay type: cell-based; conditions: human, read-out: % Cell viability ± SD, SHSY5Y
Text: as §1, §2

TrkB stable cells SHSY5Y = assay: Cytoprotective effect in TrkB stable cells SHSY5Y, 96 hrs; assay type: cell-based, human; conditions: Homo sapiens, SH-SY5Y, 96 h
Protocol: In another experiment, the cytoprotective effect of A1 as well as parent molecule B1 was determined in TrkB stable cells SHSY5Y.

[4] = system: nitric oxide (NO) production in RAW264.7 macrophages; assay: In vitro anti-inflammatory activity: nitric oxide production (Griess) in LPS-exposed RAW264.7 macrophages; assay type: cell-based, mouse; conditions: LPS 24 hrs
Protocol: Measurement of Nitric oxide: RAW264.7 macrophages were seeded in 96-well plates with a density of 0.5×10^5 cells/well and incubated overnight at 37° C. in a 5% CO2 atmosphere. The cells were treated with different concentration of CBD and its analogues and exposed to LPS for 24 hrs. For nitric oxide (NO) determination, the cell culture supernatant was taken and mixed with equal volume of Griess reagent in another 96 well plate at room temperature (Biomed Pharmacother., 2017, 92, 175-186). The absorbance was measured at 540 nm. The final calculations were determined on a NaNO2 standard curve.

p-AKT 473 = assay: Survival pathway protein expression by western blotting in SHSY5Y; assay type: cell-based, human
Protocol: (§3) Here, A1 was tested to find its role in eliciting survival pathway proteins in differentiated human neuroblastoma cells in concentration and time dependent manner.
To investigate the effect of A1 on the survival proteins, […] of survival proteins, including p-Erk 44/42, p-AKT 473, Anti BDNF, and p TrkB 816 and p TrKB 515 by western blotting.

p-Erk 44/42 [5] = assay: as above; assay type: cell-based, human; conditions: Cort. 400 μM, 6 hrs
depression mice model [6] = assay: In vivo corticosterone induced depression model: sucrose preference test; design: species or system mouse (male C57); conditions: Cort. alone, negative control, 2% sucrose, 21 days
Protocol: (§4) In vivo efficacy (ameliorates behavioral despair) of A1 in corticosterone induced model of stress (J. Neurochem., 2018 146, 722 734). […] A1 (20 mg/kg, oral) dissolved in normal saline was given for 3 consecutive weeks following corticosteroid stress. The sucrose preference test was employed, tail suspension test, and forced swim test to evaluate behavioral distress. We noticed that A1 can resurrect mice in stressful situations. […]
Sucrose consumption was employed to evaluate anhedonia, a core hallmark of depression in mice. The animals were allowed unfettered access to both identical bottles, one containing water while the other contained a 2% solution of sucrose, for 21 days.
The below equation was later employed to determine water and sugar consumed by mice:
Sucrose Preference=Sucrose consumed[…]/Total fluid intake.

depression mice model [7] = assay: In vivo corticosterone induced depression model: Forced Swim Test; design: species or system mouse (male C57); conditions: Cort. alone 35 μg/ml
Protocol: as §4
The forced swim test was employed to evaluate behavioral melancholy in depressed subjects. Each animal was individually conditioned in a glass cylinder 20 cm long, 10 cm deep and 14 cm radius of curvature. After being submerged in water for 5 mins, the mice's cumulative stationary episode, struggle in water, and eventual floating condition were evaluated. The duration for which the animals were motionless while attempting to hold both of their front limbs still was calculated by interpreting the visualizations portraying behavioral despair (Front Behav Neurosci., 2018, 12, 42).

[8] = In vivo corticosterone induced depression model: effect on body weight; design: species or system mouse (male C57); conditions: Cort. alone 35 μg/ml, negative control, 21 days
Protocol: as §4

Anti BDNF [9] = assay: Survival pathway protein expression by western blotting in SHSY5Y; assay type: cell-based, human; conditions: after corticosterone insult
Protocol: as §3
(§5) To investigate the effect of A1 on the survival proteins, SHSY5Y cell cultures were treated with different concentrations for 6 hrs and analyzed for the expression of survival proteins, including p-Erk 44/42, p-AKT 473, Anti BDNF, and p TrkB 816 and p TrKB 515 by western blotting.

p-Erk 44/42 [10] = assay: as above; assay type: cell-based, human; conditions: after corticosterone insult
Protocol: as §3, §5

p TrkB 816 = assay: as above; assay type: cell-based, human
Protocol: as §3, §5

p TrkB 515 = assay: as above; assay type: cell-based, human
Protocol: as §3, §5

Anti BDNF [11] = assay: as above; assay type: cell-based, human; conditions: Cort. 400 μM, 6 hrs
depression mice model [12] = assay: In vivo corticosterone induced depression model: Tail Suspension Test (TST); design: species or system mouse (male C57); conditions: Cort. alone
Protocol: A1 (20 mg/kg, oral) dissolved in normal saline was given for 3 consecutive weeks following corticosteroid stress. The sucrose preference test was employed, tail suspension test, and forced swim test to evaluate behavioral distress.
Tail Suspension Test (TST) is a behavioral test employed to assess perturbations expected to influence depression like phenotypes. TST is grounded on the reflection that the extent of immobility is allied with depressing phenotype of mice overturned by antidepressants. Mice were positioned 2 cm from their tail tips and 5 cm above the ground suspending the tails using adhesive tape for the free movement (Acta Neuropathol Commun., 2016, 4(1), 108).
The contemporary immobility was alluded to as interruption in motion, where a blind assessor evaluates the disappointed aspect of display before scoring it.

For C=C(C)[C@@H]1CCC(C)=C[C@H]1c1c(O)cc(CCCCC)cc1O [B1, cannabidiol], the viability at 24 h, 5 µM ([1]; RAW264.7, 5 μM) was 95.5 ± 1.5%, the viability at 24 h, 10 µM ([1]; RAW264.7, 10 μM) was 91 ± 1.6% and the viability at 48 h, 20 µM [2] was 107 ± 1.53%. The viability at 48 h, 20 µM [3] was 108 ± 1.13%, the viability at 20 µM (TrkB stable cells SHSY5Y; read-out: % Cell viability ± SD, test compound 20 μM + Cort. 400 μM, 96 hrs) was 86.7 ± 1.16% and the viability at 20 µM (TrkB stable cells SHSY5Y; read-out: % Cell viability ± SD, test compound alone, 20 μM, 96 hrs) was 102 ± 1.06%. For the same molecule, the inhibition at 5 µM ([4]; Mus musculus, RAW264.7, 5 μM, read-out: % NO Inhibition ± SD) was 24.3 ± 3.2%, the inhibition at 10 µM ([4]; Mus musculus, RAW264.7, 10 μM, read-out: % NO Inhibition ± SD) was 38.3 ± 3.7% and the “production of NO (in words)” value ([4]; pre-treated) was “decreased”.

In the case of C[C@]12C[C@H](O)[C@H]3[C@@H](CCC4=CC(=O)CC[C@@]43C)[C@@H]1CC[C@@H]2C(=O)CO [Cort., corticosterone, reference compound], the “Relative Protein Expression PAKT 473” value (p-AKT 473; Cort. 400 μM, 6 hrs) is reported as 0.01, the “p-AKT 473 level (in words)” value (p-AKT 473; after corticosterone insult) is reported as “decrease” and the “Relative Protein Expression p ERK 44/42” value (p-Erk 44/42 [5]) is reported as 0.36. The “% Sucrose consumption (ml) ± SD” value (depression mice model [6]) was 43.50 ± 3.35%, the “% Sucrose consumption (ml) ± SD” value (depression mice model [6]; listed as corticosterone) was 43.50±3.35% and the “% Immobility (sec) ± SD (dead time)” value (depression mice model [7]) was 67.15 ± 12.32 s. The “% Latency to immobility (sec) ± SD” value (depression mice model [7]) was 16.14 ± 5.68 s, the “Weight (g) ± SD” value [8] was 29.57 ± 3.90 g and the “Weight (g) ± SD” value ([8]; listed as corticosterone) was 27.40 ± 1.91 g. For the same molecule, the “anti BDNF level (in words)” value (Anti BDNF [9]) was “decrease”, the “p-Erk 44/42 level (in words)” value (p-Erk 44/42 [10]) was “decrease” and the “Relative Protein Expression p TrkB 816” value (p TrkB 816; Cort. 400 μM, 6 hrs) was 0.36. For the same molecule, the “p TrkB 816 level (in words)” value (p TrkB 816; after corticosterone insult) was “decrease”, the “Relative Protein Expression p TrkB 515” value (p TrkB 515; Cort. 400 μM, 6 hrs) was 0.15 and the “p TrkB 515 level (in words)” value (p TrkB 515; after corticosterone insult) was “decrease”. The “Relative Protein Expression Anti BDNF” value (Anti BDNF [11]) was 0.10, the “% Immobility (sec) ± SD (dead time)” value (depression mice model [12]) was 52.32 ± 9.96 s and the “% Latency to immobility (sec) ± SD” value (depression mice model [12]) was 6.97 ± 4.52 s. For the same molecule, the “% Immobility (sec) ± SD (dead time)” value (depression mice model [12]; listed as corticosterone) was 52.32 ± 9.96 s and the “% Latency to immobility (sec) ± SD” value (depression mice model [12]; listed as corticosterone) was 6.97 ± 4.52 s.
